From patent US20140121273A1, “METHOD FOR TREATMENT OF MAGNESIUM AND POTASSIUM DEFICIENCIES” (priority 2005, published 2014)
Read-outs that look alike come from different tables or passages of the source.

Key:
[1] = oral magnesium salts currently used to treat magnesium deficiencies; cited from earlier work
[2] = tested on: people taking dofetilide or sotalol therapy; test: 12-lead electrocardiogram intervals, randomized, double blind, placebo-controlled study of oral magnesium L-lactate; type: in vivo, human; conditions: for QTc Interval 3 Hour / QTc Interval 51 Hour / QTc Baseline: Bazett's formula; for QTc interval reduction: all magnesium-treated patients on sotalol or dofetilide; for QT interval reduction: magnesium therapy
Description: (§1) A randomized, double blind, placebo-controlled study was performed at Hartford Hospital. People taking dofetilide or sotalol therapy for at least 5 half-lives were eligible for inclusion. […] After enrollment, people who discontinued their sotalol or dofetilide or altered their dosage of these drugs were excluded as well. Thirty-four participants were enrolled in the study. Three were subsequently excluded because the antiarrhythmics they were using were discontinued or the dose of the antiarrhythmics changed during the study. Given the known baseline differences in QTc intervals among men and women, each gender was randomized separately using stratified allocation. Patients completing the study (n=30) were well matched for baseline characteristics, which are reflected in Table 1. Intracellular concentrations of essential elements were available for 19 subjects. Overall 63.2% of patients (regardless of experimental group) had baseline intracellular magnesium concentrations below the normal reference range of 33.9-41.9 mEq/IU with an average level of 32.6±2.2 mEq/IU. All of the other baseline intracellular elements evaluated (phosphorus, chloride, calcium, potassium, and sodium) were within the reference range although the phosphorus was at the top of the range (average=16.7±2.8 mEq/IU with reference range of 14.2-17.0 mEq/IU).
(§2) Participants received three tablets of magnesium L-lactate (Mag-Tab SR®; Niche Pharmaceuticals; Roanoke, Tex.) or matching placebo twice daily (504 mg of elemental magnesium daily) for 48 hours (i.e. t=0, 12 h, 24 h, 36 h, and 48 h). A 12-lead electrocardiogram (ECG) was recorded at 25 mm/sec at rest prior to initiation of treatment (i.e. baseline) and at 3 and 51 hours after the first dose of magnesium (i.e. t=3 h and t=51 h) for each participant. A single blinded investigator read all ECGs using a precision ruler of 0.5 mm scale (Schlaedler-Quinzel, Inc. Parsippany, N.J.).
QT intervals were measured from the onset of the Q wave (or R/S wave if there was no Q wave) to the end of the T wave where it merges with the isoelectric baseline. The beginning and end of the QRS complex were determined by visual inspection, whereas the end of the T-wave was obtained by extrapolating the descending slope of the T-wave to the isoelectric baseline. When au wave interrupts the down sloping of the T-wave, the visible portion of the T wave was extrapolated to the T-P baseline to define the end of the T-wave. The R-R interval was measured from the peak of one R wave to the peak of an adjacent R wave. The QTc interval was corrected for heart rate using Bazett's formula [QTc=QT/(RR)^1/2].
(§3) Continuous data was expressed by a mean±SD. A p value less than 0.05 was considered statistically significant. The primary analysis was the intergroup comparisons of the change in QTc interval from baseline at 3 hours and 51 hours using Bazett's formula. Evaluations of the QRS, QT, and RR intervals were compared between groups at each time period as well. Mann-Whitney tests were used for all statistical analyses of continuous ECG data. Intracellular element intragroup comparisons were performed with a paired t-test. Chi^2 or Fischer's Exact tests were used for categorical comparisons. Statistical analysis was performed using SPSS version 5.

[3] = Intracellular elemental concentrations in sublingual buccal smears (EXAtest, energy-dispersive X-ray analysis), same study; type: in vivo, human; conditions: for Intracellular magnesium concentration, Baseline: before study therapy; for Intracellular magnesium concentration, Baseline / Intracellular magnesium concentration, Post-Dosing: buccal cells, magnesium group n = 10, normal reference range 33.9-41.9, mean ± SD; for Intracellular magnesium concentration, Post-Dosing: following the third dose
Description: as §1, §2
Sublingual buccal smears were obtained from a subgroup of participants prior to initiation of study therapy and following the third dose of magnesium using EXAtest™ kits (Intracellular Diagnostics, Inc.; Foster City, Calif.). Samples were analyzed by energy-dispersive X-ray Analysis for intracellular concentrations of magnesium, phosphorus, chloride, calcium, potassium, and sodium. The use of buccal cell smears for intracellular magnesium was performed because it is noninvasive, reproducible, and correlates well (r=0.68, p<0.002) with atrial cell intracellular magnesium.
as §3

[4] = Adverse events in the placebo-controlled study; type: in vivo, human; conditions: among the 34 patients in the study; one withdrew (diarrhea 30 minutes after dosing)
Description: as §1, with “Patients completing the study (n=30) were well matched for baseline characteristics, which are reflected in Table 1. Intracellular concentrations of essential elements were available for 19 subjects. Overall 63.2% of patients (regardless of experimental group) had baseline intracellular magnesium concentrations below the normal reference range of 33.9-41.9 mEq/IU with an average level of 32.6±2.2 mEq/IU.” left out
as §2, with “A single blinded investigator read all ECGs using a precision ruler of 0.5 mm scale (Schlaedler-Quinzel, Inc. Parsippany, N.J.).” left out

[5] = cited from earlier work
[6] = tested on: patients with atrial fibrillation; conditions: oral, two 6-month studies; cited from earlier work
[7] = 3 hours after first dose, 504 mg elemental magnesium daily, oral, n = 14, mean ± SD
[8] = 51 hours after first dose, 504 mg elemental magnesium daily for 48 hours, oral, n = 14, mean ± SD
[9] = baseline, before first dose, magnesium group n = 14, on sotalol or dofetilide, mean ± SD

magnesium gluconate
bioavailability [1]: about 20%

C[C@H](O)C(=O)[O-].C[C@H](O)C(=O)[O-].[Mg+2] [magnesium L-lactate]
QT Interval 3 Hour [2, 7]: 115300 ± 11100 µM·h
RR Interval 3 Hour [2, 7]: 230400 ± 30860 µM·h
QTc Interval 3 Hour [2, 7]: 121100 ± 17700 µM·h
QTc Interval 3 Hour ([2]; 3 hours after first dose, 504 mg elemental magnesium daily, oral, n = 14, mean ± SD, listed as Magnesium): 121100 ± 17700 µM·h
QRS Interval 3 Hour ([2]; 3 hours after first dose, three tablets twice daily (504 mg elemental magnesium daily), oral, n = 14, mean ± SD): 39890 ± 11600 µM·h
QTc interval reduction ([2]; 3 hours post-dosing): 37 ms
QTc interval reduction from baseline ([2]; 3 hours, group receiving diuretics, mean ± SD): 51.1 ± 42 ms
QT interval reduction ([2]; 3 hours): isms
QTc interval reduction from baseline ([2]; 3 hours, no diuretic group, mean ± SD): 25.5 ± 27.9 ms
QT Interval 51 Hour [2, 8]: 115800 ± 12400 µM·h
RR Interval 51 Hour [2, 8]: 241200 ± 32670 µM·h
QTc Interval 51 Hour [2, 8]: 124800 ± 14300 µM·h
QTc Interval 51 Hour ([2]; 51 hours after first dose, 504 mg elemental magnesium daily for 48 hours, oral, n = 14, mean ± SD, listed as Magnesium): 124800 ± 14300 µM·h
QRS Interval 51 Hour ([2]; 51 hours after first dose, three tablets twice daily for 48 hours (504 mg elemental magnesium daily), oral, n = 14, mean ± SD): 36190 ± 12200 µM·h
QTc interval reduction ([2]; 51 hours): 25 ms
QTc interval reduction from baseline ([2]; 51 hours, group receiving diuretics, mean ± SD): 24.7 ± 24.3 ms
QT interval reduction ([2]; 51 hours): 14 ms
QTc interval reduction from baseline ([2]; 51 hours, no diuretic group, mean ± SD): 26.2 ± 27.4 ms
QTc Baseline [2, 9]: 131200 ± 15000 µM·h
QTc Baseline ([2]; baseline, before first dose, magnesium group n = 14, on sotalol or dofetilide, mean ± SD, listed as Magnesium): 131200 ± 15000 µM·h
QT Interval Baseline [2, 9]: 119600 ± 10600 µM·h
RR Interval Baseline [2, 9]: 235600 ± 45530 µM·h
intracellular magnesium of patients with baseline concentrations below the normal reference range, after magnesium supplementation ([3]; all such patients, normal reference range 33.9-41.9 mEq/IU): achieving a concentration within the normal reference range
Intracellular magnesium concentration, Baseline [3]: 32.6±2.2 mEq/IU
Intracellular magnesium concentration, Baseline ([3]; listed as Magnesium): 32.2 ± 2.2 mEq/IU
Intracellular magnesium concentration, Post-Dosing [3]: 36.2±2.4 mEq/IU
Intracellular magnesium concentration, Post-Dosing ([3]; listed as Magnesium): 36.2 ± 2.4 mEq/IU
effective in repleting intracellular magnesium levels to normal ranges ([3]; normal range defined as a minimum concentration of 33.9 mEq/IU): 100%
patients who experienced loose bowel movements [4]: 2 patients

O=S(=O)([O-])[O-].[Mg+2] [magnesium sulfate]
conversion rate ([5]; trial of intravenous magnesium sulfate versus diltiazem, p=0.03): 57%
conversion rate ([5]; trial of intravenous magnesium sulfate versus verapamil, p=0.01): 58%

[Cl-].[Cl-].[Mg+2] [magnesium chloride]
bioavailability [1]: about 20%

[O]=[Mg] [magnesium oxide]
bioavailability [1]: about 2%

[Mg+2].[OH-].[OH-] [magnesium hydroxide]
maintaining sinus rhythm [6]: ineffective at maintaining sinus rhythm
